Laboratory results reported in ChEMBL document CHEMBL1151260, “Expanding the ChemGPS chemical space with natural products” (J Nat Prod, 2005).

Assays:
[1] = target: T1, Prostaglandin G/H synthase 1 (Homo sapiens, UniProt P23219)
[2] = target: T1, Prostaglandin G/H synthase 1; assay: Inhibition of COX1 at 1000 uM
[3] = target: T2, Prostaglandin G/H synthase 2 (Homo sapiens) (UniProt P35354); assay: Inhibition of COX2 at 170 uM
T2 sequence (whole entry): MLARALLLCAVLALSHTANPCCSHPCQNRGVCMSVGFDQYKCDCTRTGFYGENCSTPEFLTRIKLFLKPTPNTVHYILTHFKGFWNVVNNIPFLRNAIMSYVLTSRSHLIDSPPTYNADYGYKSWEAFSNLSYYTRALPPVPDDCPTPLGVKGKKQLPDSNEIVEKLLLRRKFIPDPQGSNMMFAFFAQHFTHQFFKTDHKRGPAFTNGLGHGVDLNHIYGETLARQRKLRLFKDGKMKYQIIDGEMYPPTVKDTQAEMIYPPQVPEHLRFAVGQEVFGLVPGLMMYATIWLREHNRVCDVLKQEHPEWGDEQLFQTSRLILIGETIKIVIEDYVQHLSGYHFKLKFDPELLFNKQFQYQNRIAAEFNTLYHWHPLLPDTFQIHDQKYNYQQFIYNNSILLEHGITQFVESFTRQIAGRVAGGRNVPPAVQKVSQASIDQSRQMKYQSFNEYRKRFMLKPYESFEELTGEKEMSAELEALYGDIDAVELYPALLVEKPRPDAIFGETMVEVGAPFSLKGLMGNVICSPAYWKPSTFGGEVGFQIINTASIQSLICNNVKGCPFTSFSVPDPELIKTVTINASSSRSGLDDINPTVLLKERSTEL

[4] = target: T2, Prostaglandin G/H synthase 2 (Homo sapiens); assay: Inhibition of COX2 at 2.5 ug/mL
[5] = target: T1, Prostaglandin G/H synthase 1; assay: Inhibition of COX1 at 2.5 ug/mL
DLD-1 = assay: Inhibition of COX2 mRNA expression in human DLD1 cells; assay type: functional, cell-based
[6] = target: T2, Prostaglandin G/H synthase 2 (Homo sapiens); assay: Inhibition of COX2 at 327 uM
RAW264.7 [7] = assay: Inhibition of COX2 mRNA expression in mouse RAW264.7 cells; assay type: functional, cell-based
[8] = target: T1, Prostaglandin G/H synthase 1; assay: Inhibition of COX1 at 200 ug/mL
J774.A1 [9] = assay: Inhibition of COX2 protein expression in mouse J774A1 cells at 5 uM; assay type: functional
[10] = target: T2, Prostaglandin G/H synthase 2 (Homo sapiens); assay: Inhibition of COX2 at 0.1 ug/mL
[11] = target: T2, Prostaglandin G/H synthase 2 (Homo sapiens); assay: Inhibition of COX2 at 313 uM
[12] = target: T3, Prostaglandin G/H synthase 2 (Homo sapiens, UniProt P35354); assay: Inhibition of COX2 at 1000 uM
T3 sequence (P35354 whole entry): T2 sequence (whole entry)

MCF-10A = assay: Inhibition of COX2 protein expression in human MCF10A cells; assay type: functional, cell-based
SKGT4 [13] = assay: Inhibition of COX2 mRNA expression in human SKGT4 cells; assay type: functional, cell-based
SKGT4 [14] = assay: Inhibition of COX2 protein expression in human SKGT4 cells; assay type: functional, cell-based
[15] = target: T2, Prostaglandin G/H synthase 2 (Homo sapiens); assay: Inhibition of COX2 at 3.13 uM
[16] = target: T2, Prostaglandin G/H synthase 2 (Homo sapiens); assay: Inhibition of COX2 at 25 uM
[17] = target: T1, Prostaglandin G/H synthase 1; assay: Inhibition of COX1 at 30 ug/mL
J774.A1 [18] = assay: Inhibition of COX2 protein expression in mouse J774A1 cells; assay type: functional, cell-based
RAW264.7 [19] = assay: Inhibition of COX2 protein expression in mouse RAW264.7 cells; assay type: functional, cell-based
[20] = target: T1, Prostaglandin G/H synthase 1; conditions: 180 ug/mL
Description: Inhibition of COX1 at 180 ug/mL

T1 sequence (P23219 whole entry): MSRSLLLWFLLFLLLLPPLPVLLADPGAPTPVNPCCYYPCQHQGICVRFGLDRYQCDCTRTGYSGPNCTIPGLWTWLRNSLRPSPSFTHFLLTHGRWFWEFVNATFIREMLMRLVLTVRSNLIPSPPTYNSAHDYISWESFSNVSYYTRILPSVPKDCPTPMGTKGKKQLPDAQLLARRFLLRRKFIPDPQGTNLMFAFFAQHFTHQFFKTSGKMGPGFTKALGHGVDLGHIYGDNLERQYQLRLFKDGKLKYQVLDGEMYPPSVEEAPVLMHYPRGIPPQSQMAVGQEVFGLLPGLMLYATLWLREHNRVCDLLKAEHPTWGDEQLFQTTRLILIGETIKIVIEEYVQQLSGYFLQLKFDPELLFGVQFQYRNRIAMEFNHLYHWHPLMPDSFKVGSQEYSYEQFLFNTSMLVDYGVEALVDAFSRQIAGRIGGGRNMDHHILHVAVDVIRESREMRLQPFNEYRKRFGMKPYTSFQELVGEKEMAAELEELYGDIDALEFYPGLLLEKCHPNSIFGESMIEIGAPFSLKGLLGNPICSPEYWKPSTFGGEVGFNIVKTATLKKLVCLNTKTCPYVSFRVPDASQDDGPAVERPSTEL

Compound | IC50 [1] | also measured
CC/C=C/C/C=C/C/C=C/C/C=C/CCSCCCC(=O)O | 81 µM | 
C=CCc1ccc(O)c(OC)c1 [EUGENOL] | 11 µM | inhibition [2]: 97%
COc1c(O)cc([C@H]2Oc3c(c(O)cc(O)c3[C@H]3c4c(O)cc(O)cc4O[C@H](c4ccc(O)cc4)[C@@H]3O)C[C@H]2O)cc1O [OURATEAPROANTHOCYANIDIN A] | 138 µM | inhibition [3]: 37%
C=C1CCC[C@]2(C)CC[C@@H]([C@@](C)(O)CO)C[C@]12O | 1.3 µM | 
COc1cc(CNC(=O)CCCC/C=C/C(C)C)ccc1O [CAPSAICIN] | 3.8 µM | 
O=c1c(O)c(-c2ccc(O)c(O)c2)oc2cc(O)cc(O)c12 |  | inhibition [4]: 40%; inhibition [5]: 90%; Activity (DLD-1): Dose-dependent effect
Oc1cc(O)c2c(c1)O[C@H](c1cc(O)c(O)c(O)c1)[C@@H](O)C2 [GALLOCATECHIN] | 95 µM | inhibition [6]: 46%
CC(/C=C/C=C(\C)C(=O)O)=C\C=C\C=C(C)\C=C\C=C(/C)C(=O)O [TRANSCROCETIN] | 28 µM | 
C[C@@H]1O[C@@H](O[C@H]2[C@H](Oc3cc(O)c4c(=O)cc(-c5ccc(O)cc5)oc4c3)O[C@H](CO)[C@@H](O)[C@@H]2O)[C@H](O)[C@H](O)[C@H]1O |  | inhibition [4]: 20%
CC(C)=CCc1c(O)ccc2ccc(=O)oc12 [OSTHENOL] | 64 µM | 
O=c1c(O)c(-c2ccc(O)cc2)oc2cc(O)cc(O)c12 [KAEMPFEROL] |  | IC50 (RAW264.7 [7]): < 15 µM
COc1cc(O[C@@H]2O[C@H](CO)[C@@H](O)[C@H](O)[C@H]2O)cc2oc(-c3ccc(O)cc3)cc(=O)c12 |  | inhibition [8]: 13%
CC(C)=CCC/C(C)=C\CC1=CC(=O)C=C(C)C1=O | 64 µM | 
O=c1c(O)c(-c2ccccc2)oc2cc(O)cc(O)c12 [GALANGIN] |  | inhibition at 5 µM (J774.A1 [9]): 59%
COc1ccc2cc1Oc1ccc(cc1)C[C@H]1c3cc(c(OC)cc3CCN1C)Oc1c(O)c(OC)cc3c1[C@H](C2)N(C)CC3 [FANGCHINOLINE] | 129 µM | 
C=C1CCC[C@]2(C)CC[C@@H]([C@@](C)(O)CO)C[C@@]12O [KUTDTRIOL] | 39 µM | 
O=c1ccc2ccc(O)c(O)c2o1 [DAPHNETIN] | 140 µM | 
CC(C)[C@@H]1CC[C@@H](C)C[C@H]1O |  | inhibition [10]: 60%
C[C@@H]1OC(O[C@@H]2[C@@H](O)[C@H](OCCc3ccc(O)c(O)c3)O[C@H](CO[C@@H]3OC[C@](O)(CO)[C@H]3O)[C@H]2OC(=O)/C=C/c2ccc(O)c(O)c2)[C@H](O[C@@H]2OC[C@H](O)[C@H](O)[C@H]2O)[C@H](O)[C@H]1O (stereo partly specified) [BALLOTETROSIDE] | 1000 µM | 
C=C1C(=O)C(O)=C[C@@H]2[C@]3(C)CC[C@](C)(C(=O)CO)C[C@@H]3CC[C@]12C [AKENDO 3] | 34 µM | 

Compound | IC50 [1] | also measured
C=CCc1ccc(OC(C)=O)c(OC)c1 [EUGENYL ACETATE] | 3 µM | 
Oc1cc(O)c2c(c1)O[C@H](c1ccc(O)c(O)c1)[C@H](O)C2 [(-)-EPICATECHIN] |  | IC50 (DLD-1): 415 µM
C=C1CC/C=C(\C)C(=O)[C@H](OC(C)=O)[C@@H]2[C@@H]1CC2(C)C [BUDDLEDIN A] | 14 µM | 
O=c1cc(-c2ccc(O)c(O)c2)oc2cc(O)cc(O)c12 |  | inhibition [5]: 75%
COc1cc2ccc(=O)oc2c(O)c1O [FRAXETIN] | 524 µM | 
COc1c(O)cc([C@@H]2Oc3cc(O)cc(O)c3C[C@H]2O)cc1O | 12 µM | inhibition [11]: 61%
C=C(C)C(CC=C(C)C)Cc1c(O)cc(OC)c2c1O[C@H](c1ccc(O)cc1O)CC2=O (stereo partly specified) [KURARINONE] | 0.6 µM | 
COc1cc2oc(-c3ccc(O)cc3)cc(=O)c2c(O)c1OC [CIRSIMARITIN] |  | IC50 [12]: 6%
O=C(CCc1ccc(O)c(O)c1)C[C@@H](O)CCc1ccc(O)c(O)c1 |  | Activity (MCF-10A): Dose-dependent effect
O=C(/C=C/c1ccc(O)c(O)c1)O[C@H](Cc1ccc(O)c(O)c1)C(=O)O |  | inhibition [2]: 58%
COc1cc(/C=C/C(=O)CC(=O)/C=C/c2ccc(O)c(OC)c2)ccc1O |  | Activity (SKGT4 [13]): Dose-dependent effect; Activity (SKGT4 [14]): Dose-dependent effect
OC[C@H]1O[C@@H](OCCc2ccc(O)cc2)[C@H](O)[C@@H](O)[C@@H]1O [SALIDROSIDE] | 72 µM | 
CC(=O)[C@H]1CC[C@]2(C)CC[C@@H]([C@](C)(O)CO)C[C@]12O [LUCINONE] | 43 µM | 
O=c1c(O[C@@H]2O[C@H](CO)[C@@H](O)[C@H](O)[C@H]2O)c(-c2ccc(O)c(O)c2)oc2cc(O)cc(O)c12 |  | inhibition [4]: 25%
O=C(/C=C/c1ccc(O)c(O)c1)OCCc1ccccc1 [CAFFEIC ACID PHENETHYL ESTER] | 58 µM | 
C=C[C@@H](O)C#CC#C[C@@H](O)/C=C\CCCCCCC [FALCARINDIOL] | 66 µM | 
COc1c(O)cc([C@H]2Oc3cc(O)cc(O)c3C[C@H]2O)cc1O | 3.3 µM | inhibition [15]: 23%
COc1cc(/C=C/CO)cc(OC)c1O[C@@H]1O[C@H](CO)[C@@H](O)[C@H](O)[C@H]1O [SYRINGIN] | 36 µM | 
CCCCC/C=C\C/C=C\CCCCCCCC(=O)O [LINOLEIC ACID] | 13 µM | 
O=c1c(-c2ccc(O)cc2)coc2cc(O)cc(O)c12 [GENISTEIN] | 80 µM | 

Compound | IC50 [1] | also measured
O=C(O[C@@H]1Cc2c(O)cc(O)cc2O[C@@H]1c1cc(O)c(O)c(O)c1)c1cc(O)c(O)c(O)c1 |  | inhibition [16]: 13%; inhibition [17]: 51%
C=C(C)[C@H](CC=C(C)C)Cc1c(O)cc(OC)c(C(=O)/C=C/c2ccc(O)cc2O)c1O [KURAIDIN] | 0.6 µM | 
COc1cc(-c2cc(=O)c3cc(OC)c(OC)cc3o2)ccc1O |  | inhibition [2]: 37%
O=C1C[C@@H](c2ccc(O)cc2)Oc2cc(O)cc(O)c21 |  | Activity (J774.A1 [18]): Dose-dependent effect
CC(C)=CCC12Oc3cc(O)ccc3C1(O)Oc1cc(O)c([C@H]3C=C(C)C[C@@H](c4ccc(O)cc4O)[C@@H]3C(=O)c3ccc(O)cc3O)c(O)c1C2=O (stereo partly specified) [SANGGENON D] | 59 µM | 
CC1(C)CC[C@]2(C)CC[C@]3(C)[C@H]4CC=C5[C@@H](CCC(=O)C5(C)C)[C@]4(C)CC[C@@]3(C)[C@@H]2C1 [GLUTINONE] | 3.6 µM | 
C=C[C@@H](O)C#CC#C[C@@H](O)/C=C/CCCCCCCC(=O)OC(C)=O | 73 µM | 
Oc1cc(O)c2c(c1)O[C@H](c1ccc(O)c(O)c1)[C@@H](O)C2 [CIANIDANOL] | 80 µM | 
Cc1ccc(C(C)C)cc1O [CARVACROL] | 4 µM | 
CC(C)=CCC12Oc3cc(O)c(C4=CC5(C)CC(C4)c4ccc(O)cc4O5)c(O)c3C(=O)C1(O)Oc1cc(O)ccc12 (stereo unspecified) [SANGGENON B] | 42 µM | 
CC/C=C/C/C=C/C/C=C/C/C=C/CC/C=C/COCC(=O)O | 50 µM | 
CC(C)=CCc1c([C@@H]2CCc3ccc(O)cc3O2)cc2c(c1O)OC(C)(C)C=C2 [KAZINOL B] | > 100 µM | 
O=C(O)[C@H]1O[C@@H](Oc2c(-c3cc(O)c(O)c(O)c3)oc3cc(O)cc(O)c3c2=O)[C@H](O)[C@@H](O)[C@@H]1O | 10 µM | 
CC(C)=CCc1c(-c2ccc(O)cc2O)oc2c(CC=C(C)C)c(O)cc(O)c2c1=O [KUWANON C] | 62 µM | 
C[C@@H]1CC(=O)[C@]2(CO)[C@H](CCC[C@]23CO3)[C@@]12C[C@@H](c1ccoc1)OC2=O [GNAPHALIN] | 40 µM | 
O=c1cc(-c2ccc(O)cc2)oc2cc(O)cc(O)c12 [APIGENIN] |  | inhibition [2]: 65%; IC50 (RAW264.7 [19]): 500 nM; inhibition at 5 µM (J774.A1 [9]): 64%
COc1cc(/C=C/CO)ccc1O[C@@H]1O[C@H](CO)[C@@H](O)[C@H](O)[C@H]1O [CONIFERIN] | 75 µM | 
COc1cc(-c2cc(=O)c3c(O)c(OC)c(OC)c(O)c3o2)ccc1O |  | inhibition [2]: 37%
CC(=O)Oc1ccccc1C(=O)O |  | inhibition [2]: 46%; inhibition [20]: 52%
